In BindingDB's records for doi:10.1016/j.ejmech.2019.04.053 (China Pharmaceutical University, 2019) one finds IC50 data, which are given here for five molecules.

The nature of this test: Inhibition of human TRKA expressed in human TF1 cells by CellTiter-Glo Luminescent assay. (ATP-based viability assays read luminescence as a measure of living cells.)
As a reminder, the IC50 is the concentration at which inhibition is half-maximal. Low readings indicate higher potency, high ones lower potency. In the case of `COCC[C@@H]1C[C@@H](NC(=O)Nc2c(C)c(-c3cnn(C)c3)nn2-c2ccccc2)[C@H](c2cnc(Cl)c(F)c2)N1`, the half-maximal inhibitory concentration (IC50) is < 100 nM.
`COCC[C@@H]1C[C@@H](NC(=O)Nc2c(C)c(-c3cnc4c(c3)c(N=S(C)(C)=O)nn4C)nn2-c2ccccc2)[C@H](c2ccc(F)c(F)c2)N1`: the half-maximal inhibitory concentration (IC50) was < 100 nM.
In turn, `COCCN1C[C@@H](NC(=O)Nc2c(C)c(-c3cnn(C)c3)nn2-c2ccccc2)[C@@H]2c3ccccc3CC[C@H]21` gave an IC50 of 0.59 nM.
As for `Cc1c(OCC2CCN(C)CC2)nn(-c2ccccc2)c1NC(=O)N[C@H]1CN(CC(F)(F)F)[C@@H]2COc3ccccc3[C@H]12`, the IC50 turned out to be 0.64 nM. The IC50 values of the last two molecules are within 1.5-fold of each other.
Consider `COCC[C@@H]1C[C@@H](NC(=O)Nc2c(C)c(-c3cnn(C)c3)nn2-c2ccccc2)[C@@H]2c3ccccc3C(F)(F)CN12`, for which half-maximal inhibition (IC50) required 0.64 nM.
